Measurements: patent publication US6355785B1, “Guanosine-rich oligonucleotide integrase inhibitors” (Aronex Pharmaceuticals, Inc., priority 1993, dated 2002)
“And” between values parts separate entries of the source, which are not always exact repeats. Equal entries are not always repeated. Where two headings read alike, the source gives them in different places. Marks after values point to notes of the source that are not given here.

Key:
HIV-1RF = assay: HeLa-CD4-LTR-β-galactosidase cell virus infection assay; assay type: cell-based
[1] = target: recombinant HIV-1 integrase (wild-type) (Human immunodeficiency virus type 1 group M subtype B, UniProt P12497); assay: HIV-1 integrase 3′-processing and strand transfer assays; assay type: biochemical; set-up: Purified recombinant HIV-1 integrase enzyme (wild-type) was a generous gift from Dr. R. Craigie; purchased gift of Dr. R. Craigie, Laboratory of Molecular Biology, NIDDK (not bought)
Protocol: Integrase enzyme assays. Purified recombinant HIV-1 integrase enzyme (wild-type) was a generous gift from Dr. R. Craigie, Laboratory of Molecular Biology, National Institute of Diabetes and Digestive and Kidney Diseases. The enzyme (0.25 μM) was preincubated in reaction buffer at 20° C. for 30 minutes. All 3′-processing and strand-transfer reactions were performed as described previously by Fresen et al. (Fresen, et al., Proc. Natl. Acad. Sci. USA 90:2399-2403 (1993)) and Mazumder et al. (Mazumder, et al., Proc. Natl. Acad. Sci. USA 91:5771-5775 (1994)). Enzyme reactions were quenched by the addition of Maxam-Gilbert loading dye, and an aliquot was electrophoresed on a denaturing 20% polyacrylamide gel. Gels were then dried and subjected to autoradiography using Kodax XAR-2 film or exposed in a Molecular Dynamics Phospholmager cassette.
Integrase was preincubated at a final concentration of 200 (for HIV-1 and HIV-2) or 600 nM (for FIV and SIV) with inhibitor in reaction buffer (50 mM Nac1, 1 mM HEPES, pH 7.5, 50 μM dithiothreitol, 10% glycerol (wt/vol), 7.5 mM MnCl2 or MgCL2 (when specified), 0.1 mg/mL bovine serum albumin, 20 mM 2-mercaptoethanol, 10% dimethyl sulfoxide, and 25 mM MOPS, pH 7.2) at 30° C. for 30 minutes. When magnesium was used as the divalent metal ion, polyethylene glycol was added at a final concentration of 5% to increase activity as previously described (Engelman & Craigie, 1995). Preincubation for 30 minutes of the enzyme with inhibitor was performed to optimize increases the inhibitory activity in the 3′-processing reaction (Fesen et al., 1994). Then, 30 nM of the 5′-end ^32P-labeled linear oligonucleotide substrate was added, and incubation was continued for an additional 1 hr. The final reaction volume was 16 μL.
Electrophoresis and quantitation. Reactions were quenched by the addition of an equal volume […] of loading dye (98% deionized formamide, 10 mM EDTA, 0.025% xylene cyanol, 0.025% bromophenol blue). An aliquot (5 μL) was electrophoresed on a denaturing 20% polyacrylamide gel (0.09 M Tris-borate pH 8.3, 2 mM EDTA, 20% acrylamide, 8M urea). Gels were dried, exposed in a Molecular Dynamics Phosphorimager cassette, and analyzed using a Molecular Dynamics phosphorimager (Sunnyvale, Calif.). Percent inhibition was calculated using the following equation:
where C, N, and D are the fractions of 21mer substrate converted to 19mer (3′-processing product) or strand transfer products for DNA alone, DNA plus integrase, and integrase plus drug, respectively.
Antiviral assay. The RF laboratory strain of HIV-1 was used to infect established cell lines for one hour at 37° C. prior to washing and resuspension in medium containing increasing concentrations of drug. […] Purified recombinant HIV-1 integrase enzyme (wild-type) was a generous gift from Dr. Craigie, Laboratory of Molecular Biology, NIDDK. All 3′-processing and strand-transfers were performed as described previously by Fresen et al. (Fresen et al. (1993) Proc. Natl. Acad. Sci. VSA 90, 2399-2403) and Mazurnder et al. (Mazumder et al. (1994) Proc. Natl. Acad. Sci. USA 91, 5771-75).

[2] = tested on: HIV-1 strains (SKI, RF, DV, IIIB, ADP/141); assay: microbe, parasite or virus in culture; assay type: cell-based
[3] = Thermal denaturation of oligomer fold (UV, Tm); assay type: physicochemical
[4] = Oligomer folding by circular dichroism; conditions: for midpoint of K+ induced folding transition (CD, 264 nm): KCl, 25° C., 20 mM Li3PO4
[5] = target: HIV-1 integrase (wild-type and deletion mutants) (Human immunodeficiency virus type 1 group M subtype B, UniProt P12497); assay: UV crosslinking DNA binding experiments; conditions: enzyme preincubated with oligo
Protocol: UV crosslinking experiments. The method used has been described by Engleman et al. Engelman, et al., J. Virol. 68, 5911-5917 (1994). Briefly, integrase (at the indicated concentration) was incubated with substrate in reaction buffer as above for 5 minutes at 30° C. Reactions were then irradiated with a UV transilluminator (254 nm wavelength) from 3 cm above (2.4 mW/cm2) at room temperature for 10 minutes. An equal volume (16 μL) of 2X SDS-PAGE buffer (100 mM Tris, pH 6.8, 4% 2-mercaptoethanol, 4% SDS, 0.2% bromophenol blue, 20% glycerol) was added to each reaction. Twenty μL aliquots were heated at 95° C. for 3 minutes prior to loading on a 12% or 18% SDS-polyacrylamide gel. The gel was run at 120 V for 1.5 hours, dried, and exposed in a Phosphorlmager cassette. […] For the competition experiments (FIG. 29), integrase (200 nM) was preincubated with either the radiolabeled viral DNA substrate (20 nM) or T30177 (20 nM) for 5 minutes at 30° C. prior to the addition of competitor DNA at the indicated concentration.

HIV-1DV [6] = assay: HIV-1 p24 production in SUP T1 cells; assay type: cell-based
HIV-1 strain DV = assay: HIV-1 induced syncytia formation assay in SUP T1 cells; assay type: cell-based
HIV-1DV [7] = assay: Analysis of HIV-1 RNA and DNA in single cycle assays, SUP T1; assay type: cell-based
HIV-1 RT = HIV-1 RT (Human immunodeficiency virus type 1 group M subtype B, UniProt P04585); assay: In vitro inhibition of HIV-1 RT (kinetic analysis); assay type: biochemical; conditions: for IC50: read-out: ID50 (the source's name)
SUP T1 cells = assay: Cytotoxicity assay, CellTiter 96 (MTS), SUP T1 cells; conditions: read-out: TC50 (concentration reducing cell proliferation by 50%); SUP T1, dye (MTS) metabolism assay
[8] = target: HIV-1 gp120 interaction with CD4 (Human immunodeficiency virus type 1 group M subtype B, UniProt P04578)
[9] = target: T1, recombinant RT (HIV-1BH10) (Human immunodeficiency virus type 1 group M subtype B, UniProt P03366); assay: Reverse transcriptase enzyme inhibition assays; assay type: biochemical; conditions: read-out: IC50 recombinant HIV-1 RT
T1 construct: Purified recombinant RT (HIV-1BH10) was obtained from the University of Alabama; purchased University of Alabama, Center for AIDS research (obtained from)

HIV-1SKI = assay: Single cycle analysis of HIV-1 cDNA, CEM-SS cells; assay type: cell-based; conditions: 10- to 100-fold over IC50
HIV-1IIIB = assay: Time of drug addition study, MT-4 cells (p24); assay type: cell-based; conditions: 100-fold IC50, MOI 1, p24 at 29 hour
[10] = tested on: CD4- and gp120-mediated cell fusion; assay: cells; assay type: cell-based; conditions: HL2/3, read-out: IC50 CD4- and gp120-mediated cell fusion
[11] = strand transfer, read-out: Anti-Integrase Assay IC50 strand tran.
[12] = HIV-1 RF, CEM-SS or MT4, read-out: Antiviral Assay IC50 RF
[13] = read-out: Enzyme IC50 3-′process
[14] = anti-HIV-1 virus production, read-out: Cell Culture IC50
[15] = cell culture, read-out: IC50 HIV-1RF
[16] = 3′-processing, read-out: Anti-Integrase Assay IC50 3′-proc
[17] = HIV-1 IIIB, CEM-SS or MT4, read-out: Antiviral Assay IC50 IIIB
[18] = HIV-1 SKI, CEM-SS or MT4, read-out: Antiviral Assay IC50 SKI
[19] = Human immunodeficiency virus 1, IIIB, CEM-SS, read-out: Antiviral Assay IC50 IIIB, HIV-1 IIIB, CEM-SS or MT4
[20] = Human immunodeficiency virus 1, IIIB, CEM-SS, read-out: Antiviral Assay IC50 RF, HIV-1 RF, CEM-SS or MT4
[21] = Human immunodeficiency virus 1, IIIB, CEM-SS, read-out: Antiviral Assay IC50 SKI, HIV-1 SKI, CEM-SS or MT4

Molecule: 5′-GTGATGGGTGGGTGGGT-3′ (phosphorothioate termini, further chemistry not given here) [T30526, pPT, dA for dG, tetrad-disrupted mutant of T30177]
- less potent than T30177 at inhibiting virus-infected cell β-galactosidase production (HIV-1RF): 10-15 fold
- IC50 [1, 11]: 123 nM
- IC50 [2, 12]: 11700 nM

Molecule: 5′-gggtgggtgggtgggt-3′ [T30695]
- Tm ([3]; 1 mM KCl): 67 °C
- Tm ([3]; 10 mM KCl, calculated from linear fit): 87* ° C.
- Tm ([3]; 180 mM KCl, calculated from linear fit): 110* ° C.
- midpoint of K+ induced folding transition (CD, 264 nm) [4]: ~0.02 mM
- midpoint of Rb+ induced folding transition (CD) ([4]; RbCl): 0.5 mM
- IC50 [1, 13]: 20 nM
- IC50 ([1]; read-out: Enzyme IC50 Stran Trans): 60 nM
- IC50 ([1]; read-out: IC50 3′-PROC): 43 ± 17 nM
- IC50 ([1]; read-out: IC50 STR · TRA): 24 ± 4 nM
- IC50 [2, 14]: 70 nM
- IC50 [2, 15]: 70 nM

Molecule: 5′-ggttggtgtggttgg-3′ [T30659, reference compound]
- inhibition of integrase binding to radiolabeled U5 DNA substrate [5]: only modest inhibition of DNA binding
- IC50 [1, 16]: > 500 nM
- IC50 [1, 13]: 750 nM
- IC50 [1, 11]: > 500 nM
- IC50 [2, 17]: > 20000 nM
- IC50 [2, 12]: > 20000 nM
- IC50 [2, 18]: 2810 nM
- IC50 [2, 14]: > 20000 nM

Molecule: 5′-gtggtgggtgggtgggt-3′ (GTGGTGGGTGGGTGGGT; phosphodiester, 3'-propanolamine, further chemistry not given here) [I100-15, 17 mer PD, 3′-propanolamine]
- Percent p24 relative to infected untreated control, Day 7 (HIV-1DV [6]; 2.5 uM, drug removed day 4): 0.0%
- Percent p24 relative to infected untreated control, Day 11 (HIV-1DV [6]; 2.5 uM, drug removed day 4): 0.0%
- Percent p24 relative to infected untreated control, Day 4 (HIV-1DV [6]; 2.5 uM, medium replaced day 4): 0.0%
- IC50 (HIV-1DV [6]; SUP T1, HIV-1DV, four days): 80 nM
- T.I. (therapeutic index) (HIV-1 strain DV): >200
- IC50 (HIV-1 strain DV; SUP T1, HIV-1DV, four days, read-out: IC50 Syn (syncytium inhibition)): 125 nM
- IC50 (HIV-1 strain DV; size variants of I100-15, read-out: IC50 Syn.): 160 nM
- viral DNA synthesis (PCR) (HIV-1DV [7]; 36 hr post-infection): minimal
- HIV-1 specific transcript (RT-PCR) (HIV-1DV [7]; drug added at zero hours): reduced level of HIV-1 specific transcript
- Ki (HIV-1 RT): > 5000 nM
- IC50 (HIV-1 RT): > 5000 nM

Molecule: 5′-gtggtgggtgtggtgggt-3′ (GTGGTGGGTGTGGTGGGT; phosphorothioate termini, further chemistry not given here) [T30676, pPT variant T30177]
- Tm ([3]; 1 mM KCl): 33 °C
- Tm ([3]; 10 mM KCl): 46 °C
- Tm ([3]; 180 mM KCl): 65 °C
- midpoint of K+ induced folding transition (CD, 264 nm) [4]: 0.27 mM
- IC50 [1, 13]: 134 nM
- IC50 ([1]; read-out: IC50 STR · TRA): 134 ± 16 nM
- IC50 [2, 14]: 1000 nM
- IC50 [2, 15]: 1000 nM

Molecule: 5′-gttgggggttgttggtggggtggtgg-3′ [I100-00] (DNA GTTGGGGGTTGTTGGTGGGGTGGTGG; phosphorodiamidate backbone, further chemistry not given here) [26 mer PD]
- CC50 (SUP T1 cells): 37000 nM
- IC50 ([8]; read-out: ID50 [CD4], oligo binding to immobilized CD4): 18000 nM
- IC50 ([8]; read-out: ID50 [gp 120], oligo preincubated with soluble gp120): 3500 nM
- IC50 (HIV-1 strain DV; SUP T1, HIV-1 DV, read-out: IC50 in anti-HIV-1 syncytia formation assay): 3750 nM
- Ki (HIV-1 RT): 370 nM
- IC50 (HIV-1 RT): 5000 nM

Molecule: Cc1cn([C@H]2C[C@H](N=[N+]=[N-])[C@@H](COP(=O)(O)OP(=O)(O)OP(=O)(O)O)O2)c(=O)[nH]c1=O [AZT 5′-triphosphate, reference compound]
- IC50 ([9]; template gapped duplex DNA, duplicate experiments): 470 nM and 400 nM
- IC50 ([9]; template poly(rA)p(dT)12-18, duplicate experiments): 590 nM and 600 nM

Molecule: COc1cc(-c2ccc(/N=N/c3ccc4c(S(=O)(=O)O)cc(S(=O)(=O)O)c(N)c4c3O)c(OC)c2)ccc1/N=N/c1ccc2c(S(=O)(=O)O)cc(S(=O)(=O)O)c(N)c2c1O [CSB, Chicago sky blue]
- IC50 (HIV-1RF; Human immunodeficiency virus 1, HIV-1RF, read-out: IC50 β-galactosidase production, virus infection assay): 260 nM
- viral cDNA 12 hours post-infection, drug added at time of infection (HIV-1SKI): no detectable viral DNA
- delay of drug addition post-infection at which inhibitory effect is lost (HIV-1IIIB): one hour post-virus infection
- IC50 [2, 19]: 600 nM
- IC50 [2, 20]: 1700 nM
- IC50 [2, 21]: 1600 nM
- IC50 [10]: 800 nM

Molecule: CC(C)OC(=O)c1cc(NC(=S)OC(C)C)ccc1Cl [UC38]
- viral cDNA 12 hours post-infection, drug added at time of infection (HIV-1SKI): no detectable viral DNA
- IC50 [2, 17]: 90 nM
- IC50 [2, 12]: 20 nM
- IC50 [2, 18]: 90 nM

Molecule: Nc1ccn([C@H]2CC[C@@H](CO)O2)c(=O)n1 [ddC, 2′,3′-dideoxycytidine]
- viral cDNA 12 hours post-infection, drug added at time of infection (HIV-1SKI): no detectable viral DNA
- IC50 [1, 16]: > 1000 nM
- IC50 [1, 11]: > 1000 nM
- IC50 [2, 19]: 78 nM
- IC50 [2, 20]: 57 nM
- IC50 [2, 21]: 260 nM
- IC50 ([2]; Human immunodeficiency virus 1, IIIB, CEM-SS, read-out: IC50 virus production, HIV-1 RF, CEM-SS, MOI 0.01): 57 nM
